Measured values published in patent publication US20240279304A1, “DSG2 COMPOSITIONS AND METHODS” (Arvada Therapeutics, Inc., priority 2021, published 2024).
“Also recorded” adds a separate entry of the source.

What was measured:
[1] = test system: ARVC serum (anti-DSG2 antibodies in serum obtained from ARVC patients); test: anti-DSG2 antibody MSD assay, blocking of ARVC patient serum; assay type: binding, human; set-up: % inhibition: concentration or dose not given beside the values; settings: for % inhibition: fraction C (table title)
Experimental: The DSG2 fusion polypeptides were tested for the ability to block anti-DSG2 antibody by an anti-DSG2 antibody meso scale discovery (MSD) assay. […] The DSG2 fusion polypeptides were subjected to size exclusion chromatography and different elution fractions were examined. […] As shown in Table 7 and FIG. 1B, FIG. 1C, and FIG. 1D, enriching for fraction C improved the ability of the DSG2 fusion polypeptides to block ARVC patient serum.
ARVC diagnosis is based on complex tool known as Task Force Criteria, which can lead to varying levels of conviction about ARVC diagnosis. The utility of DSG2 antibodies as an indicator of ARVC disease state and severity was explored. Approximately 50 cc serum was collected from diagnosed ARVC patients. A total of 10 ARVC patients and 5 healthy controls were used for the analysis. ARVC serum samples were separated into more robust diagnosis and less robust diagnosis, based on available data in the patient medical records and anti-DSG2 antibody levels were compared using an anti-DSG2 antibody meso scale discovery (MSD)-based assay.

[2] = test system: human iPSC cardiomyocytes; test: CiPA multielectrode array (MEA) assay, sodium spike; assay type: cell-based; settings: 1.1 μg/mL DSG2FP #1; anti-DSG2 antibodies 0.5 μg/mL
Experimental: To determine the effect of anti-DSG2 antibodies in cardiomyocytes, the cardiac in vitro proarrhythmia (CiPA) assay was performed (Sager et al. Am Heart J 2014; 167:292-300; the contents of which are herein incorporated by reference in its entirety). CiPA is envisioned to consist of four components: (1) an evaluation of the effects of test agents on cardiac ion channel assays; (2) in silico modeling of the cardiac action potential based on the ion channel results to integrate the data with cardiac function; (3) experimental measurement of test agent effects in human ventricular myocytes to confirm the modeling result; and (4) scoring the results. […] The sodium spike quantified below is a measurement of the specific sodium channel current in the cardiomyocyte and is also described in Blinova K, et al. Cell Rep. […] The parameters evaluated include measuring a change in the spike in the component of electrical signal propagation (e.g. sodium spike) and cell index—a function of cell impedance and cell number. […]
Commercially available anti-DSG2 antibodies were tested in the cardiomyocyte CiPA assay. […] The voltage (μV) is measured at time intervals of 0, 1 hour, 12 hours, 24 hours, 48 hours, 72 hours, and 96 hours. […]

“DSG2FP#1: R&D Systems DSG2 extracellular domain (49-608 of SEQ ID NO: 30); linker IEGRMD; amino acids 100-330 of IgG1” was tested. Which “ability to bind and block ARVC serum (in words)” value [1] did it give?
The value was “able to bind and block anti-DSG2 antibody as well as serum obtained from ARVC patients”.

And the “blocking of assay signal from ARVC patient serum samples with strong clinical data (in words)” value ([1]; Example 3, competing DSG2 polypeptide added)?
The value was “could also be blocked”.

And the “% inhibition” value ([1]; sample: ARVC serum 1)?
The value was 96.7%.

And the “% inhibition” value ([1]; sample: ARVC serum 2)?
The value was 82.9%.

What about the “% inhibition” value ([1]; sample: ARVC serum 3) of the same substance?
The value was 95.8%.

And the “% inhibition” value ([1]; sample: ARVC serum 4)?
Its value is 95.7%.

What about the “% inhibition” value ([1]; sample: ARVC serum 5) of the same substance?
Its value is 93.1%.

And the “rescue of the effect of anti-DSG2 antibodies on cardiomyocyte sodium spike (in words)” value [2]?
Its value is “rescued; also recorded: completely blocks the effect of the anti-DSG2 antibodies on the sodium spike”.
